Test results published in patent US6444617B1, “Fused-heterocycle dicarboxylic acid diamide derivatives or salts thereof, herbicide and usage thereof” (Nihon Nohyaku Co., Ltd., priority 1998, dated 2002).

Tests used:
Assay type in all cases: in vivo
[1] = test system: bulrush (Scirpus juncoides Roxb.); test: Test Example 1: herbicidal effect on paddy field weeds before emergence; conditions: Dosage 5 kg/ha
How it was run: (§1)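 Seeds of both weeds, still ungerminated, in soil pots held under paddy conditions received a set dose of test solution as soil treatment. After twenty-one days, control relative to untreated pots was calculated and rated on a scoring scale.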

[2] = test system: barnyard grass (Echinochloa crus-galli Beauv.); test: as above; conditions: Dosage 5 kg/ha
How it was run: as §1

soybean plant (So) = test: Test Example 3: phytotoxicity to upland crop plants, treatment before emergence; conditions: dosage 5 kg/ha
How it was run: (§2)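 A sprayed liquid agent with a prescribed concentration of active compound was applied pre-emergence. Visual phytotoxicity on soybean and wheat was rated by criterion two weeks (14 days) after application, concurrently with the herbicidal assessment.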

wheat (Wh) = test: as above; conditions: dosage 5 kg/ha
How it was run: as §2

[3] = test system: monochoria (Monochoria vaginalis Presl); test: Test Example 2: herbicidal effect on paddy field weeds after emergence; conditions: Dosage 5 kg/ha; one-leaved stage; 21 days after treatment
How it was run: (§3)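 Weeds were sown in 1/10000 are pots of soil flooded to paddy conditions and grown to the one-leaf stage, then the soil was treated with a solution of compound at a predetermined dosage.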

[4] = test system: bulrush (Scirpus juncoides Roxb.); test: as above; conditions: Dosage 5 kg/ha; one-leaved stage; 21 days after treatment
How it was run: as §3

[5] = test system: barnyard grass (Echinochloa crus-galli Beauv.); test: as above; conditions: Dosage 5 kg/ha; one-leaved stage; 21 days after treatment
How it was run: as §3

[6] = test system: velvetleaf (Abutilon theophtasti L.), At; test: Test Example 3: herbicidal effect on upland weeds before emergence; conditions: dosage 5 kg/ha
How it was run: (§4)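 Herbicidal activity was rated from kill rate determined 14 days post-spray, the compound having been applied pre-emergence as a liquid agent.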

[7] = test system: barnyard grass (Echinochloa crus-galli Beauv.), Ec; test: as above; conditions: dosage 5 kg/ha
How it was run: as §4

[8] = test system: forxtail grass (Alopecurus aequalis var. amurensis Ohwi), Am; test: as above; conditions: foxtail grass, dosage 5 kg/ha
How it was run: as §4

[9] = test system: cleavers (Galium aparine L.), Ga; test: as above; conditions: dosage 5 kg/ha
How it was run: as §4

[10] = test system: bird's eye speedwell (Veronica persica Poir.), Vp; test: as above; conditions: dosage 5 kg/ha
How it was run: as §4

[11] = test system: cocklebur (Xanthium strumarium L.), Xs; test: as above; conditions: dosage 5 kg/ha
How it was run: as §4

[12] = test system: velvetleaf (Abutilon theophtasti L.), At; test: Test Example 4: herbicidal effect on upland weeds after emergence; conditions: dosage 5 kg/ha; sprayed after emergence; judged 14 days after treatment
How it was run: (§5)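 Soil vats; sown weeds + soybean/wheat; spray at leaf-stage, prescribed compound concentration; weed-kill rate judged day 14.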

[13] = test system: barnyard grass (Echinochloa crus-galli Beauv.), Ec; test: as above; conditions: dosage 5 kg/ha; sprayed after emergence; judged 14 days after treatment
How it was run: as §5

[14] = test system: forxtail grass (Alopecurus aequalis var. amurensis Ohwi), Am; test: as above; conditions: dosage 5 kg/ha; sprayed after emergence; judged 14 days after treatment
How it was run: as §5

[15] = test system: cleavers (Galium aparine L.), Ga; test: as above; conditions: dosage 5 kg/ha; sprayed after emergence; judged 14 days after treatment
How it was run: as §5

[16] = test system: bird's eye speedwell (Veronica persica Poir.), Vp; test: as above; conditions: dosage 5 kg/ha; sprayed after emergence; judged 14 days after treatment
How it was run: as §5

[17] = test system: cocklebur (Xanthium strumarium L.), Xs; test: as above; conditions: dosage 5 kg/ha; sprayed after emergence; judged 14 days after treatment
How it was run: as §5

wheat = test: Test Example 4: phytotoxicity to upland crop plants, treatment after emergence; conditions: dosage 5 kg/ha, sprayed after emergence, judged 14 days after treatment
How it was run: (§6)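 Upland weeds and crop plants (soybean, wheat) are grown from seed in soil until they reach given leaf stages, then treated by spraying with the compound-containing agent; effects are judged two weeks later.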

soybean plant = test: as above; conditions: dosage 5 kg/ha, sprayed after emergence, judged 14 days after treatment
How it was run: as §6

Compound: CCc1ccc(Cl)c(CC)c1NC(=O)c1cc2c(nc1C(=O)NC1CCCC1)SCCC2 [compound 519]
- Pre-emergence treatment Bulrush (herbicidal effect) [1]: 5 (Weed-killing rate is 100%.)
- Pre-emergence treatment Barnyard grass (herbicidal effect) [2]: 5 (Weed-killing rate is 100%.)
- Phytotoxicity So (soybean plant (So)): 4 (Crop-killing rate is 90-99%.)
- Phytotoxicity Wh (wheat (Wh)): 5 (Crop-killing rate is 100%.)
- Post-emergence treatment Monochoria (herbicidal effect) [3]: 5 (Weed-killing rate is 100%.)
- Post-emergence treatment Bulrush (herbicidal effect) [4]: 5 (Weed-killing rate is 100%.)
- Post-emergence treatment Barnyard grass (herbicidal effect) [5]: 5 (Weed-killing rate is 100%.)
- Herbicidal effect At [6]: 5 (Weed-killing rate is 100%.)
- Herbicidal effect Ec [7]: 5 (Weed-killing rate is 100%.)
- Herbicidal effect Am [8]: 5 (Weed-killing rate is 100%.)
- Herbicidal effect Ga [9]: 5 (Weed-killing rate is 100%.)
- Herbicidal effect Vp [10]: 5 (Weed-killing rate is 100%.)
- Herbicidal effect Xs [11]: 5 (Weed-killing rate is 100%.)
- Herbicidal effect At [12]: 5 (Weed-killing rate is 100%.)
- Herbicidal effect Ec [13]: 5 (Weed-killing rate is 100%.)
- Herbicidal effect Am [14]: 5 (Weed-killing rate is 100%.)
- Herbicidal effect Ga [15]: 5 (Weed-killing rate is 100%.)
- Herbicidal effect Vp [16]: 5 (Weed-killing rate is 100%.)
- Herbicidal effect Xs [17]: 5 (Weed-killing rate is 100%.)
- Phytotoxicity Wh (wheat): 5 (Crop-killing rate is 100%.)
- Phytotoxicity So (soybean plant): 4 (Crop-killing rate is 90-99%.)

Compound: CCCNC(=O)c1nc2c(cc1C(=O)Nc1cccc(Cl)c1C)CCOC2 [compound 450]
- Pre-emergence treatment Bulrush (herbicidal effect) [1]: 5 (Weed-killing rate is 100%.)
- Pre-emergence treatment Barnyard grass (herbicidal effect) [2]: 5 (Weed-killing rate is 100%.)
- Phytotoxicity So (soybean plant (So)): 4 (Crop-killing rate is 90-99%.)
- Phytotoxicity Wh (wheat (Wh)): 4 (Crop-killing rate is 90-99%.)
- Post-emergence treatment Monochoria (herbicidal effect) [3]: 5 (Weed-killing rate is 100%.)
- Post-emergence treatment Bulrush (herbicidal effect) [4]: 5 (Weed-killing rate is 100%.)
- Post-emergence treatment Barnyard grass (herbicidal effect) [5]: 5 (Weed-killing rate is 100%.)
- Herbicidal effect At [6]: 5 (Weed-killing rate is 100%.)
- Herbicidal effect Ec [7]: 5 (Weed-killing rate is 100%.)
- Herbicidal effect Am [8]: 5 (Weed-killing rate is 100%.)
- Herbicidal effect Ga [9]: 4 (Weed-killing rate is 90-99%.)
- Herbicidal effect Vp [10]: 5 (Weed-killing rate is 100%.)
- Herbicidal effect Xs [11]: 4 (Weed-killing rate is 90-99%.)
- Herbicidal effect At [12]: 5 (Weed-killing rate is 100%.)
- Herbicidal effect Ec [13]: 5 (Weed-killing rate is 100%.)
- Herbicidal effect Am [14]: 5 (Weed-killing rate is 100%.)
- Herbicidal effect Ga [15]: 4 (Weed-killing rate is 90-99%.)
- Herbicidal effect Vp [16]: 5 (Weed-killing rate is 100%.)
- Herbicidal effect Xs [17]: 4 (Weed-killing rate is 90-99%.)
- Phytotoxicity Wh (wheat): 4 (Crop-killing rate is 90-99%.)
- Phytotoxicity So (soybean plant): 4 (Crop-killing rate is 90-99%.)

Compound: CCCNC(=O)c1cc2c(nc1C(=O)Nc1c(CC)ccc(Cl)c1CC)[S+]([O-])CC2 (stereo not drawn) [Compound No. 1028]
- Pre-emergence treatment Bulrush (herbicidal effect) [1]: 5 (Weed-killing rate is 100%.)
- Pre-emergence treatment Barnyard grass (herbicidal effect) [2]: 5 (Weed-killing rate is 100%.)
- Phytotoxicity So (soybean plant (So)): 4 (Crop-killing rate is 90-99%.)
- Phytotoxicity Wh (wheat (Wh)): 5 (Crop-killing rate is 100%.)
- Post-emergence treatment Monochoria (herbicidal effect) [3]: 5 (Weed-killing rate is 100%.)
- Post-emergence treatment Bulrush (herbicidal effect) [4]: 5 (Weed-killing rate is 100%.)
- Post-emergence treatment Barnyard grass (herbicidal effect) [5]: 5 (Weed-killing rate is 100%.)
- Herbicidal effect At [6]: 5 (Weed-killing rate is 100%.)
- Herbicidal effect Ec [7]: 5 (Weed-killing rate is 100%.)
- Herbicidal effect Am [8]: 5 (Weed-killing rate is 100%.)
- Herbicidal effect Ga [9]: 5 (Weed-killing rate is 100%.)
- Herbicidal effect Vp [10]: 5 (Weed-killing rate is 100%.)
- Herbicidal effect Xs [11]: 5 (Weed-killing rate is 100%.)
- Herbicidal effect At [12]: 5 (Weed-killing rate is 100%.)
- Herbicidal effect Ec [13]: 5 (Weed-killing rate is 100%.)
- Herbicidal effect Am [14]: 5 (Weed-killing rate is 100%.)
- Herbicidal effect Ga [15]: 4 (Weed-killing rate is 90-99%.)
- Herbicidal effect Vp [16]: 5 (Weed-killing rate is 100%.)
- Herbicidal effect Xs [17]: 5 (Weed-killing rate is 100%.)
- Phytotoxicity Wh (wheat): 5 (Crop-killing rate is 100%.)
- Phytotoxicity So (soybean plant): 4 (Crop-killing rate is 90-99%.)

Compound: CCCNC(=O)c1nc2c(cc1C(=O)Nc1c(CC)ccc(Cl)c1CC)OCCC2 [compound 486]
- Pre-emergence treatment Bulrush (herbicidal effect) [1]: 5 (Weed-killing rate is 100%.)
- Pre-emergence treatment Barnyard grass (herbicidal effect) [2]: 5 (Weed-killing rate is 100%.)
- Phytotoxicity So (soybean plant (So)): 4 (Crop-killing rate is 90-99%.)
- Phytotoxicity Wh (wheat (Wh)): 4 (Crop-killing rate is 90-99%.)
- Post-emergence treatment Monochoria (herbicidal effect) [3]: 5 (Weed-killing rate is 100%.)
- Post-emergence treatment Bulrush (herbicidal effect) [4]: 5 (Weed-killing rate is 100%.)
- Post-emergence treatment Barnyard grass (herbicidal effect) [5]: 5 (Weed-killing rate is 100%.)
- Herbicidal effect At [6]: 5 (Weed-killing rate is 100%.)
- Herbicidal effect Ec [7]: 5 (Weed-killing rate is 100%.)
- Herbicidal effect Am [8]: 5 (Weed-killing rate is 100%.)
- Herbicidal effect Ga [9]: 5 (Weed-killing rate is 100%.)
- Herbicidal effect Vp [10]: 5 (Weed-killing rate is 100%.)
- Herbicidal effect Xs [11]: 5 (Weed-killing rate is 100%.)
- Herbicidal effect At [12]: 5 (Weed-killing rate is 100%.)
- Herbicidal effect Ec [13]: 5 (Weed-killing rate is 100%.)
- Herbicidal effect Am [14]: 5 (Weed-killing rate is 100%.)
- Herbicidal effect Ga [15]: 5 (Weed-killing rate is 100%.)
- Herbicidal effect Vp [16]: 5 (Weed-killing rate is 100%.)
- Herbicidal effect Xs [17]: 5 (Weed-killing rate is 100%.)
- Phytotoxicity Wh (wheat): 4 (Crop-killing rate is 90-99%.)
- Phytotoxicity So (soybean plant): 4 (Crop-killing rate is 90-99%.)

Compound: CCCNC(=O)c1nc2ncccc2cc1C(=O)Nc1c(CC)ccc(Cl)c1CC [compound 361]
- Pre-emergence treatment Bulrush (herbicidal effect) [1]: 5 (Weed-killing rate is 100%.)
- Pre-emergence treatment Barnyard grass (herbicidal effect) [2]: 5 (Weed-killing rate is 100%.)
- Phytotoxicity So (soybean plant (So)): 4 (Crop-killing rate is 90-99%.)
- Phytotoxicity Wh (wheat (Wh)): 4 (Crop-killing rate is 90-99%.)
- Post-emergence treatment Monochoria (herbicidal effect) [3]: 5 (Weed-killing rate is 100%.)
- Post-emergence treatment Bulrush (herbicidal effect) [4]: 5 (Weed-killing rate is 100%.)
- Post-emergence treatment Barnyard grass (herbicidal effect) [5]: 5 (Weed-killing rate is 100%.)
- Herbicidal effect At [6]: 5 (Weed-killing rate is 100%.)
- Herbicidal effect Ec [7]: 5 (Weed-killing rate is 100%.)
- Herbicidal effect Am [8]: 5 (Weed-killing rate is 100%.)
- Herbicidal effect Ga [9]: 5 (Weed-killing rate is 100%.)
- Herbicidal effect Vp [10]: 5 (Weed-killing rate is 100%.)
- Herbicidal effect Xs [11]: 5 (Weed-killing rate is 100%.)
- Herbicidal effect At [12]: 5 (Weed-killing rate is 100%.)
- Herbicidal effect Ec [13]: 5 (Weed-killing rate is 100%.)
- Herbicidal effect Am [14]: 5 (Weed-killing rate is 100%.)
- Herbicidal effect Ga [15]: 5 (Weed-killing rate is 100%.)
- Herbicidal effect Vp [16]: 5 (Weed-killing rate is 100%.)
- Herbicidal effect Xs [17]: 5 (Weed-killing rate is 100%.)
- Phytotoxicity Wh (wheat): 5 (Crop-killing rate is 100%.)
- Phytotoxicity So (soybean plant): 4 (Crop-killing rate is 90-99%.)
